{
  "source": "patent US20150291532A1",
  "about": "“AMORPHOUS FORM OF QUINOLINE DERIVATIVE, AND METHOD FOR PRODUCING SAME” (Eisai R&D Management Co., Ltd., priority 2012, published 2015)",
  "key": {"[1]": {"assay": "Evaluation of solubility: dissolved concentration by the Paddle method, HPLC", "type": "physicochemical", "details": "general statement of advantageous effect"}, "[2]": {"assay": "Evaluation of solubility: dissolved concentration by the Paddle method, HPLC", "type": "physicochemical", "details": "approx. 40 mg in 100 mL fasting artificial intestinal juice pH 6.5, 37° C., 50 rpm; for Concentration of compound A at sampling time 5 minute: 5 min; for Concentration of compound A at sampling time 10 minute: 10 min; for Concentration of compound A at sampling time 20 minute: 20 min; for Concentration of compound A at sampling time 30 minute: 30 min; for Concentration of compound A at sampling time 45 minute: 45 min; for Concentration of compound A at sampling time 60 minute: 60 min", "experimental": "The dissolved concentration of amorphous compound A obtained in Example 1 was measured by the Paddle method. Approximately 40 mg of amorphous compound A was loaded into an equipment for the elution test, and 500 μL of solution was sampled at 5, 10, 20, 30, 45 and 60 minutes each. The concentration of compound A in the solution was measured by HPLC. As a comparative control there was used B-form crystals of 4-(3-chloro-4-(cyclopropylaminocarbonyl)aminophenoxy)-7-methoxy-6-quinolinecarboxamide (see Patent Literature 2). Solvent: 100 mL of fasting artificial intestinal juice (buffer with pH 6.5, containing 29 mM NaH2PO4, 100 mM KCl, 7.5 mM lecithin, and 30 mM sodium taurocholate) Temperature: 37° C. Paddle rotational speed: 50 rpm Column: YMC-UltraHT C18 (product of YMC Inc., inner diameter: 2.0 mm, column length: 50 mm, particle size: 2 μm) Column temperature: 40° C. (using a column oven) Flow rate: 0.42 mL/min Mobile phase: Solution A and solution B were used for elution with the linear gradient shown in Table 1. Solution A H2O: CH3CN:HClO4*=990:10:1 (V/V/V) Solution B CH3CN:H2O:HClO4*=900:100:1 (V/V/V) (*: 70% aqueous solution) Injection volume: 10 μL Detection: Ultraviolet absorptiometer (measuring wavelength: 252 nm). Autosampler temperature: 10° C."}},
  "data": [
    {"smiles": "COc1cc2nccc(Oc3ccc(NC(=O)NC4CC4)c(Cl)c3)c2cc1C(N)=O", "note": "[Amorphous A, 4-(3-chloro-4-(cyclopropylaminocarbonyl)aminophenoxy)-7-methoxy-6-quinolinecarboxamide]", "values": [
      {"measurement": "Solubility in water", "setting": "[1]", "value": "excellent solubility in water"},
      {"measurement": "Concentration of compound A at sampling time 5 minute", "setting": "[2]", "value": 4900, "unit": "ng/mL"},
      {"measurement": "Concentration of compound A at sampling time 10 minute", "setting": "[2]", "value": 5360, "unit": "ng/mL"},
      {"measurement": "Concentration of compound A at sampling time 20 minute", "setting": "[2]", "value": 5630, "unit": "ng/mL"},
      {"measurement": "Concentration of compound A at sampling time 30 minute", "setting": "[2]", "value": 5520, "unit": "ng/mL"},
      {"measurement": "Concentration of compound A at sampling time 45 minute", "setting": "[2]", "value": 5410, "unit": "ng/mL"},
      {"measurement": "Concentration of compound A at sampling time 60 minute", "setting": "[2]", "value": 5310, "unit": "ng/mL"}
    ]},
    {"smiles": "COc1cc2nccc(Oc3ccc(NC(=O)NC4CC4)c(Cl)c3)c2cc1C(N)=O", "note": "[Crystalline B, 4-(3-chloro-4-(cyclopropylaminocarbonyl)aminophenoxy)-7-methoxy-6-quinolinecarboxamide, reference compound]", "values": [
      {"measurement": "Concentration of compound A at sampling time 5 minute", "setting": "[2]", "value": 810, "unit": "ng/mL"},
      {"measurement": "Concentration of compound A at sampling time 10 minute", "setting": "[2]", "value": 870, "unit": "ng/mL"},
      {"measurement": "Concentration of compound A at sampling time 20 minute", "setting": "[2]", "value": 930, "unit": "ng/mL"},
      {"measurement": "Concentration of compound A at sampling time 30 minute", "setting": "[2]", "value": 940, "unit": "ng/mL"},
      {"measurement": "Concentration of compound A at sampling time 45 minute", "setting": "[2]", "value": 980, "unit": "ng/mL"},
      {"measurement": "Concentration of compound A at sampling time 60 minute", "setting": "[2]", "value": 1000, "unit": "ng/mL"}
    ]}
  ]
}
